Results published in US12371454B2, “Cyclic peptide compound having Kras inhibitory action” (priority 2019, dated 2025).
Starred links: 1 amine or outer side, 2 acyl side, 3 side chain; linkers in the order of their positions; H or OH if unused. Positions of bridges follow the written chain, without caps; N, C: chain ends. Non-standard residues stand in square brackets, D forms with d. Residues, ends and D or L forms follow the SMILES beside them. *: point of attachment. hPhe(3-Cl-4-CF3) = N[C@@H](CCc1ccc(C(F)(F)F)c(Cl)c1)C(=O)O; hPhe(3-F,4-CF3) = N[C@@H](CCc1ccc(C(F)(F)F)c(F)c1)C(=O)O; NMeAbu(4,4,4-F3) = CN[C@@H](CC(F)(F)F)C(=O)O; NMePhe(3-Cl) = CN[C@@H](Cc1cccc(Cl)c1)C(=O)O; NMePhe(4-Me) = CN[C@@H](Cc1ccc(C)cc1)C(=O)O; NMedβ3hAla = C[C@H](CC(=O)[*:2])N(C)[*:1]; dβ3hPip = O=C(C[C@H]1CCCCN1[*:1])[*:2]; NMeAla(cPr) = CN[C@@H](CC1CC1)C(=O)O; NMeGly(cBu) = CN[C@H](C(=O)O)C1CCC1; NMeCha = CN[C@@H](CC1CCCCC1)C(=O)O; NMehLeu = CN[C@@H](CCC(C)C)C(=O)O; NMeChg = CN[C@H](C(=O)O)C1CCCCC1; NMeI = CC[C@H](C)[C@H](NC)C(=O)O; NMeT = CN[C@H](C(=O)O)[C@@H](C)O; NMeD = CN[C@@H](CC(=O)O)C(=O)O; NMeL = CN[C@@H](CC(C)C)C(=O)O; NMeNva = CCC[C@H](NC)C(=O)O; NMeV = CN[C@H](C(=O)O)C(C)C; Trifluoroethyl = FC(F)(F)C*; d(β3hA) = C[C@@H](N)CC(=O)O; NMeS = CN[C@@H](CO)C(=O)O; Morpholide = C1CN(*)CCO1; NMeA = CN[C@@H](C)C(=O)O; Piperidide = C1CCN(*)CC1; Pyrrolidide = C1CCN(*)C1; Ac5c = NC1(C(=O)O)CCCC1; Aze = O=C(O)[C@@H]1CCN1; Ac4c = NC1(C(=O)O)CCC1; Sar = CNCC(=O)O; Propyl = CCC*

Experiments:
[1] = biological target: T1, Kras and SOS1 (biotin-tagged human Kras loaded with GDP, His-tagged human SOS1) (Homo sapiens, UniProt P01116, G12D); assay: Protein-protein interaction inhibition between Kras and SOS1 (KrasGl2D-SOS PPI) using AlphaScreen; assay type: binding; settings: AlphaScreen; biotin-tagged human Kras loaded with GDP, His-tagged human SOS1; read-out: KRAS G12D-SOS PPI IC50
T1 construct: made in house; host or cells: E. coli (stated for Kras only)
T1 sequence (P01116 1-188 isoform P01116-2 G12D): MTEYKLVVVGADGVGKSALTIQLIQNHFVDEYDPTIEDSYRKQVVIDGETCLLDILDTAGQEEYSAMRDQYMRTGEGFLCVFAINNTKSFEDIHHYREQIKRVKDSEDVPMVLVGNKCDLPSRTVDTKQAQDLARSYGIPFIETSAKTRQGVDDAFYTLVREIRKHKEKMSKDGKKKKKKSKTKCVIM
Summary of the method: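 Donor beads (nickel) hold His-SOS1; acceptor beads (streptavidin) hold biotin-Kras bound to GDP. Signal measured at 520-620 nm following 680 nm excitation.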

[2] = test system: Human pancreatic cancer cell line AsPC-1; assay: Measurement of AsPC-1 cell growth inhibition (AsPC-1 CGI); assay type: cell-based; settings: 96 h
Summary of the method: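 AsPC-1 cells in 15% FBS RPMI-1640 were exposed to test compound for 96 hours at 37° C, with CellTiter-Glo as endpoint.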

CC[C@H](C)[C@@H]1NC(=O)[C@H](CC(C)C)N(C)C(=O)C[C@@H](C)NC(=O)[C@H]([C@@H](C)CC)N(C)C(=O)C2(CCCC2)NC(=O)[C@@H]2CCCN2C(=O)[C@H](CCc2ccc(C(F)(F)F)c(Cl)c2)NC(=O)CN(C)C(=O)[C@H](CC2CCCCC2)N(C)C(=O)CN(C)C(=O)CN(C)C1=O [Compound 708] (cyclo([Ac5c][NMeI][d(β3hA)][NMeL]I[Sar][Sar][NMeCha][Sar][hPhe(3-Cl-4-CF3)]P))
IC50 [1]: 11 nM
IC50 [2]: 50 to 100 nM

CC[C@H](C)[C@@H]1NC(=O)[C@H](CC(C)C)N(C)C(=O)C[C@@H](C(=O)N2CCCCC2)N(C)C(=O)[C@H](C(C)C)N(C)C(=O)C2(CCC2)NC(=O)[C@@H]2CCCN2C(=O)[C@H](CCc2ccc(C(F)(F)F)c(Cl)c2)NC(=O)CN(C)C(=O)[C@H](CC2CCCCC2)N(C)C(=O)CN(C)C(=O)CN(C)C1=O [Compound 712] ([NMeL]I[Sar][Sar][NMeCha][Sar][hPhe(3-Cl-4-CF3)]P[Ac4c][NMeV][NMeD]-Piperidide; lactam N-11)
IC50 [1]: 2.7 nM
IC50 [2]: 50 to 100 nM

CC[C@H](C)[C@@H]1NC(=O)[C@H](C)N(C)C(=O)C[C@@H](C)N(C)C(=O)[C@H](C(C)C)N(C)C(=O)C2(CCCC2)NC(=O)[C@@H]2CCCN2C(=O)[C@H](CCc2ccc(C(F)(F)F)c(Cl)c2)NC(=O)CN(C)C(=O)[C@H](CC2CCCCC2)N(C)C(=O)CN(C)C(=O)CN(C)C1=O [Compound 714] (cyclo([Ac5c][NMeV][NMedβ3hAla][NMeA]I[Sar][Sar][NMeCha][Sar][hPhe(3-Cl-4-CF3)]P))
IC50 [1]: 2.3 nM
IC50 [2]: 100 to 500 nM

CC[C@H](C)[C@@H]1NC(=O)[C@H](CC(C)C)N(C)C(=O)C[C@@H](C(=O)N2CCCCC2)N(C)C(=O)[C@H](C2CCCCC2)N(C)C(=O)C2(CCCC2)NC(=O)[C@@H]2CCCN2C(=O)[C@H](CCc2ccc(C(F)(F)F)c(Cl)c2)NC(=O)CN(C)C(=O)[C@H](COCC(F)(F)F)N(C)C(=O)CN(C)C(=O)CN(C)C1=O [Compound 732] ([NMeL]I[Sar][Sar][NMeS](Trifluoroethyl)[Sar][hPhe(3-Cl-4-CF3)]P[Ac5c][NMeChg][NMeD]-Piperidide; lactam N-11)
IC50 [1]: 1.4 nM
IC50 [2]: 100 to 500 nM

CCCOC[C@H]1C(=O)N(C)CC(=O)N[C@@H](CCc2ccc(C(F)(F)F)c(Cl)c2)C(=O)N2CCC[C@H]2C(=O)NC2(CCCC2)C(=O)N(C)[C@@H](C2CCCCC2)C(=O)N(C)[C@H](C(=O)N2CCCC2)CC(=O)N(C)[C@@H](CC(F)(F)F)C(=O)N[C@@H]([C@@H](C)CC)C(=O)N(C)CC(=O)N(C)CC(=O)N1C [Compound 735] ([NMeAbu(4,4,4-F3)]I[Sar][Sar][NMeS](Propyl)[Sar][hPhe(3-Cl-4-CF3)]P[Ac5c][NMeChg][NMeD]-Pyrrolidide; lactam N-11)
IC50 [1]: 0.44 nM
IC50 [2]: 50 to 100 nM

CC[C@H](C)[C@@H]1NC(=O)[C@H](CC(C)C)N(C)C(=O)C[C@H]2CCCCN2C(=O)[C@H](C(C)C)N(C)C(=O)C2(CCCC2)NC(=O)[C@@H]2CCCN2C(=O)[C@H](CCc2ccc(C(F)(F)F)c(Cl)c2)NC(=O)CN(C)C(=O)[C@H](CC2CCCCC2)N(C)C(=O)CN(C)C(=O)CN(C)C1=O [Compound 747] (cyclo([Ac5c][NMeV][dβ3hPip][NMeL]I[Sar][Sar][NMeCha][Sar][hPhe(3-Cl-4-CF3)]P))
IC50 [1]: 11 nM
IC50 [2]: 100 to 500 nM

CC[C@H](C)[C@@H]1NC(=O)[C@H]([C@@H](C)O)N(C)C(=O)C[C@@H](C(=O)N2CCCCC2)N(C)C(=O)[C@H](C2CCCCC2)N(C)C(=O)C2(CCCC2)NC(=O)[C@@H]2CCCN2C(=O)[C@H](CCc2ccc(C(F)(F)F)c(Cl)c2)NC(=O)CN(C)C(=O)[C@H](CC2CCCCC2)N(C)C(=O)CN(C)C(=O)CN(C)C1=O [Compound 756] ([NMeT]I[Sar][Sar][NMeCha][Sar][hPhe(3-Cl-4-CF3)]P[Ac5c][NMeChg][NMeD]-Piperidide; lactam N-11)
IC50 [1]: 0.58 nM
IC50 [2]: 100 to 500 nM

CC[C@H](C)[C@@H]1NC(=O)[C@H](CC(C)C)N(C)C(=O)C[C@@H](C(=O)N2CCCCC2)N(C)C(=O)[C@H](CCC(C)C)N(C)C(=O)C2(CCCC2)NC(=O)[C@@H]2CCCN2C(=O)[C@H](CCc2ccc(C(F)(F)F)c(Cl)c2)NC(=O)CN(C)C(=O)[C@H](CC2CCCCC2)N(C)C(=O)CN(C)C(=O)CN(C)C1=O [Compound 762] ([NMeL]I[Sar][Sar][NMeCha][Sar][hPhe(3-Cl-4-CF3)]P[Ac5c][NMehLeu][NMeD]-Piperidide; lactam N-11)
IC50 [1]: 5.5 nM
IC50 [2]: 100 to 500 nM

CC[C@H](C)[C@@H]1NC(=O)[C@H](CC(F)(F)F)N(C)C(=O)C[C@@H](C(=O)N2CCOCC2)N(C)C(=O)[C@H](C2CCCCC2)N(C)C(=O)C2(CCCC2)NC(=O)[C@@H]2CCCN2C(=O)[C@H](CCc2ccc(C(F)(F)F)c(Cl)c2)NC(=O)CN(C)C(=O)[C@H](CC2CCCCC2)N(C)C(=O)CN(C)C(=O)CN(C)C1=O [Compound 774] ([NMeAbu(4,4,4-F3)]I[Sar][Sar][NMeCha][Sar][hPhe(3-Cl-4-CF3)]P[Ac5c][NMeChg][NMeD]-Morpholide; lactam N-11)
IC50 [1]: 0.55 nM
IC50 [2]: 20 to 50 nM

CCC[C@H]1C(=O)N[C@@H]([C@@H](C)CC)C(=O)N(C)CC(=O)N(C)CC(=O)N(C)[C@@H](CC2CCCCC2)C(=O)N(C)CC(=O)N[C@@H](CCc2ccc(C(F)(F)F)c(Cl)c2)C(=O)N2CCC[C@H]2C(=O)NC2(CCCC2)C(=O)N(C)[C@@H](C2CCCCC2)C(=O)N(C)[C@H](C(=O)N2CCCCC2)CC(=O)N1C [Compound 778] ([NMeNva]I[Sar][Sar][NMeCha][Sar][hPhe(3-Cl-4-CF3)]P[Ac5c][NMeChg][NMeD]-Piperidide; lactam N-11)
IC50 [1]: 0.7 nM
IC50 [2]: 20 to 50 nM

CC[C@H](C)[C@@H]1NC(=O)[C@H](CC(C)C)N(C)C(=O)C[C@@H](C(=O)N(C)C)N(C)C(=O)[C@H]([C@@H](C)CC)N(C)C(=O)C2(CCCC2)NC(=O)[C@H](Cc2cccc(Cl)c2)N(C)C(=O)[C@H](CCc2ccc(C(F)(F)F)c(Cl)c2)NC(=O)CN(C)C(=O)[C@H](Cc2ccc(C)cc2)N(C)C(=O)[C@@H]2CCN2C(=O)[C@H](C)N(C)C1=O [Compound 783] ([NMeL]I[NMeA][Aze][NMePhe(4-Me)][Sar][hPhe(3-Cl-4-CF3)][NMePhe(3-Cl)][Ac5c][NMeI][NMeD]-NMe2; lactam N-11)
IC50 [1]: 9.8 nM
IC50 [2]: 50 to 100 nM

CC[C@H](C)[C@@H]1NC(=O)[C@H](CC(C)C)N(C)C(=O)C[C@@H](C(=O)N2CCCCC2)N(C)C(=O)[C@H](CC2CC2)N(C)C(=O)C2(CCCC2)NC(=O)[C@@H]2CCCN2C(=O)[C@H](CCc2ccc(C(F)(F)F)c(Cl)c2)NC(=O)CN(C)C(=O)[C@H](CC2CCCCC2)N(C)C(=O)CN(C)C(=O)CN(C)C1=O [Compound 787] ([NMeL]I[Sar][Sar][NMeCha][Sar][hPhe(3-Cl-4-CF3)]P[Ac5c][NMeAla(cPr)][NMeD]-Piperidide; lactam N-11)
IC50 [1]: 2.9 nM
IC50 [2]: 100 to 500 nM

CC[C@H](C)[C@@H]1NC(=O)[C@H](CC(C)C)N(C)C(=O)C[C@@H](C(=O)N2CCCC2)N(C)C(=O)[C@H](C(C)C)N(C)C(=O)C2(CCCC2)NC(=O)[C@@H]2CCCN2C(=O)[C@H](CCc2ccc(C(F)(F)F)c(F)c2)NC(=O)CN(C)C(=O)[C@H](CC2CCCCC2)N(C)C(=O)CN(C)C(=O)CN(C)C1=O [Compound 804] ([NMeL]I[Sar][Sar][NMeCha][Sar][hPhe(3-F,4-CF3)]P[Ac5c][NMeV][NMeD]-Pyrrolidide; lactam N-11)
IC50 [1]: 0.99 nM
IC50 [2]: 100 to 500 nM

CCCOC[C@H]1C(=O)N2CC[C@H]2C(=O)N(C)[C@@H](CC2CCCCC2)C(=O)N(C)CC(=O)N[C@@H](CCc2ccc(C(F)(F)F)c(Cl)c2)C(=O)N2CCC[C@H]2C(=O)NC2(CCCC2)C(=O)N(C)[C@@H](C(C)C)C(=O)N(C)[C@H](C(=O)N2CCCCC2)CC(=O)N(C)[C@@H](CC(C)C)C(=O)N[C@@H]([C@@H](C)CC)C(=O)N1C [Compound 809] ([NMeL]I[NMeS](Propyl)[Aze][NMeCha][Sar][hPhe(3-Cl-4-CF3)]P[Ac5c][NMeV][NMeD]-Piperidide; lactam N-11)
IC50 [1]: 47 nM
IC50 [2]: 100 to 500 nM

CC[C@H](C)[C@@H]1NC(=O)[C@H](CC(F)(F)F)N(C)C(=O)C[C@@H](C(=O)N2CCCC2)N(C)C(=O)[C@H](C2CCCCC2)N(C)C(=O)C2(CCCC2)NC(=O)[C@@H]2CCCN2C(=O)[C@H](CCc2ccc(C(F)(F)F)c(Cl)c2)NC(=O)CN(C)C(=O)[C@H](Cc2ccc(C)cc2)N(C)C(=O)CN(C)C(=O)CN(C)C1=O [Compound 814] ([NMeAbu(4,4,4-F3)]I[Sar][Sar][NMePhe(4-Me)][Sar][hPhe(3-Cl-4-CF3)]P[Ac5c][NMeChg][NMeD]-Pyrrolidide; lactam N-11)
IC50 [1]: 0.41 nM
IC50 [2]: 20 to 50 nM

CC[C@H](C)[C@@H]1NC(=O)[C@H](C2CCC2)N(C)C(=O)C[C@@H](C)NC(=O)[C@H](C(C)C)N(C)C(=O)C2(CCCC2)NC(=O)[C@@H]2CCCN2C(=O)[C@H](CCc2ccc(C(F)(F)F)c(Cl)c2)NC(=O)CN(C)C(=O)[C@H](CC2CCCCC2)N(C)C(=O)CN(C)C(=O)CN(C)C1=O [Compound 815] (cyclo([Ac5c][NMeV][d(β3hA)][NMeGly(cBu)]I[Sar][Sar][NMeCha][Sar][hPhe(3-Cl-4-CF3)]P))
IC50 [1]: 26 nM
IC50 [2]: 100 to 500 nM
